Data taken from PMC10935098 (Molecules, 2024).
≈ marks a conversion by molar mass, not a printed value.

How the values were obtained:
[1] = test system: Candida parapsilosis (BNCC336015); test: microbe, parasite or virus in culture; conditions: Lodderomyces parapsilosis, 24 h, read-out: MIC, C. parapsilosis
[2] = test system: Candida tropicalis (BNCC340288); test: microbe, parasite or virus in culture; conditions: 24 h, read-out: MIC, C. tropical

`Clc1ccccc1C(c1ccccc1)(c1ccccc1)n1ccnc1` [clotrimazole] showed an MIC [1] of 25 µM (≈ 8.62 µg/mL) and an MIC [2] of 12.5 µM (≈ 4.31 µg/mL).
